Assays:
[1] = system: IL-2-induced reduction in oxygenation; conditions: rat
Procedure: Animals were weighed on the day of dosing and the appropriate doses of IL-2 and/or LA were calculated. The animals remained conscious throughout the experiment until an anesthetic was administered approximately 10 minutes before exsanguination. The anesthetic consisted of a mixture of ketamine (45 mg/ml) xylazine (2.5 mg/ml), and acepromazine (0.37 mg/ml) diluted with water and administered subcutaneously at a dose of 2.0 ml/kg.
Group 1 (n=14) consisted of control animals that received both i.v. and i.p. injections of vehicle. The other five groups received i.v. injections of IL-2 via the tail vein. Groups 2 (n=8), 3 (n=4), and 4 (n=10) received IL-2 in doses of 1.5, 6.0, and 12.5 million IU(MIU)/kg, respectively. In addition to 12.5 million IU/kg of IL-2, Groups 5 (n=8) and 6 (n=13) received i.p. injections of the LA. The LA was administered in two equal, divided doses; the first dose of LA was given 20 minutes before administration of IL-2 and the second dose was given 50 minutes after administration of IL-2. Group 5 was administered 2×10 mg/kg of the LA. Group 6 was administered 2×30 mg/kg of the LA.
Two hours after the IL-2 injection, the animals were exsanguinated via the abdominal aorta and the arterial blood was collected for measurement of PaO2.
Whole arterial blood was collected into heparinized blood arterial gas syringes. Immediately after collection, the blood sample was analyzed using PaO2 electrode model DO-166FT. Sample blood was pre-oxygenated and used as a standard before and after each test sample.
Data are shown as mean±SEM. Data were analyzed using the Tukey-Kramer test (JMP® statistical software from SAS, Inc.) Significance was defined as a p-value less than 0.05.

IL-2-induced toxicity [2] = conditions: rat, in vivo
Procedure: (§1) Six groups of animals were studied (total N=59). […] The animals remained conscious throughout the experiment until an anesthetic was administered approximately 10 minutes before planned exsanguination. The anesthetic consisted of a mixture of ketamine (45 mg/ml), xylazine (2.5 mg/ml), and acepromazine (0.37 mg/ml) diluted with water and administered subcutaneously at a dose of 2.0 ml/kg.
(§2) IL-2 or IL-2 vehicle was administered by bolus injection via the tail vein. […] Two hours after the injection of IL-2 or IL-2 vehicle, animals were exsanguinated via the abdominal aorta and the arterial blood was collected for measurement of PaO2.
(§3) Group 1 (n=13) consisted of control animals that received injections of each vehicle, either i.v. or i.p. as appropriate. The other five groups received i.v. bolus injections of IL-2 via the tail vein. Groups 2 (n=8), 3 (n=5), and 4 (n=13) received IL-2 in doses of 1.5, 6.0, and 12.5 million IU/kg, respectively.
The study was conducted in two phases.
(§4) Whole arterial blood was collected into heparinized syringes. Immediately after collection, the blood sample was analyzed using a Lazar Research Laboratories flow-through dissolved-oxygen probe. The cell temperature was set to 37 degrees centigrade. A syringe pump was set to 0.5 ml/min to introduce the sample. The cell was zeroed using a solution of heparin and isotonic saline equilibrated with 100% nitrogen. The cell was then calibrated using a solution of heparin and isotonic saline equilibrated with 20% oxygen. After each PaO2 determination in whole blood was made, the cell was washed with heparin ad isotonic saline. A 20% O2 standard was introduced before each sample to ensure accurate and reliable measurements.
(§5) If the data appeared to be normally distributed, the comparison was to be made using Student's t-test.

renal cell carcinoma [3] = conditions: IL-2 treatment alone; cited from earlier work
[4] = system: B16/BL6 murine melanoma tumor cells; assay: Murine model of B16 melanoma lung metastases (Example 5); assay type: in vivo
Procedure: The B16/BL6 murine melanoma tumor cells for injection were obtained from in vitro culture. Mice were inoculated with 3×10^5 cells intravenously on Day 0.
Tumor cells were injected on Day 0. […] An additional group of 15 untreated control mice was used for timing the termination of the study. At Day 10, three untreated control mice were to be euthanized each day until tumor burden was determined to be optimal for counting metastatic foci, at which time the remaining rumored and five non-rumored mice were to be euthanized and lungs removed for determination of body weights, lung weights and numbers of metastatic foci.
Anti-tumor activity was assessed by counts of metastatic foci in the lungs. Comparison among the three treatment groups (Groups 1, 2 and 3) was performed using one-way ANOVA (or Kruskal-Wallis one-way analysis of variance on ranks for data with non-normal distribution) with the three between-group comparisons performed using adjustment for multiple comparisons.

[5] = system: human neutrophil adhesion to LTB4-stimulated umbilical vein endothelial cells; assay: Inhibition of human neutrophil adhesion to LTB4-stimulated umbilical vein endothelial cells; assay type: cell-based
[6] = assay type: in vivo; conditions: intraperitoneal, bid for 4 days, tumored mice treated with IL-2; preliminary study
[7] = system: calcium ionophore dermal inflammation; assay: Inhibition of calcium ionophore dermal inflammation in the guinea pig ear; conditions: in vivo
LTB4 synthesis = assay: Inhibition of LTB4 synthesis; assay type: biochemical
LTB4 chemotaxis [8] = assay: Inhibition of LTB4 chemotaxis (in vitro); assay type: cell-based
[9] = system: LTB4-induced neutrophil granulation; assay: Inhibition of LTB4-induced neutrophil granulation; assay type: cell-based
LTB4 chemotaxis [10] = assay: Inhibition of LTB4 chemotaxis in guinea pigs; assay type: in vivo; conditions: Cavia porcellus, po; i.g.
[11] = system: acetic acid colonic inflammation; assay: Inhibition of acetic acid colonic inflammation; assay type: in vivo; conditions: Rattus norvegicus, po; i.g.; read-out: Inhibition of acetic acid colonic inflammation in rats and guinea pig, ED50
IL-2-induced toxicity [12] = assay: Rat model of IL-2-induced toxicity, PaO2 (Example 4); conditions: Biomed 101 (20 or 60 mg/kg total i.p.) with IL-2 12.5 MIU/kg
Procedure: as §1, §2, §3
The study was conducted in two phases.
as §4, §5

[13] = Biomed 101 plasma levels in rats (HPLC); assay type: in vivo, Sprague Dawley rats; conditions: rat
Procedure: In animals dosed with Biomed 101, plasma levels of Biomed 101 were assayed with a validated, high-pressure liquid chromatographic method.

renal cell carcinoma [14] = assay: Clinical trial of LA plus IL-2 in patients with renal cell carcinoma (Example 6); assay type: in vivo, human
Procedure: A preferred LA compound (as defined in Example 3) from drug substance lot # BA901 was supplied as 25 mg capsules Batch # 99G111 by BioMedicines, Inc. Each hard gelatin capsule contained 25 mg LA plus excipients including lactose hydrous NF; hydroxypropylmethylcellulose 2910, 6 cps USP; sodium lauryl sulfate NF; purified water, USP; and sodium chloride.
Patients received IL-2 600,000 IU/kg by intravenous bolus three times daily during 5 days for a planned total of 14 doses. LA was administered orally 1 hour prior to each schedule dose of IL-2 as well as 8 hours after the final scheduled dose. If dose of IL-2 was withheld because of IL-2 induced toxicity, dosing with LA continued. Doses of LA ranged from 25 mg three times daily (TID) to 75 mg TID. Plasma levels of LA were obtained at each dose level.
The principal activity endpoint was the relationship between the total number of doses of IL-2 that could be administered and well tolerated by patients and the plasma levels of LA. A second endpoint was the response rate in patients of the tumor to the combination therapy with the leukotriene B4 receptor antagonist and IL-2 as judged by complete responses (total disappearance of measurable tumor) or partial responses (a ≧50% decrease in measurable tumor volume).
Data were analyzed by examining the significance of the correlation between number of doses of IL-2 and LA plasma level (Spearman's rho).

12 (R)-HETE = assay: Inhibition of 12 (R)-HETE in guinea pigs; assay type: in vivo; conditions: Cavia porcellus, po; i.g.
[15] = system: LTA4 conversion into LTB4; assay: Inhibition of LTA4 conversion into LTB4; assay type: biochemical

## des-alanyl-1, serine-125 human interleukin-2 [IL-2]
[1]; in vivo, iv
  arterial oxygen level (PaO2), mean±SEM: 77.5±2.5 mm Hg
  effect of progressively higher doses on arterial oxygen levels: progressively reduced
IL-2-induced toxicity [2]
  Change in Oxygen (mean) (mm Hg): −15 mm Hg
  decrease of mean PaO2 for each increase of 1 MIU/kg in IL-2 administered: approximately 1.8 mm Hg
  effect on PaO2: significant fall
Renal cell carcinoma [3]
  objective response rate historically noted: 8-10%
[4]; Day 10, vehicle control 174
  Median Lung Weight: 177 mg
[4]; Kruskal-Wallis
  lung weights compared with vehicle control: did not decrease
[4]; mice, Group 2, IL-2 1 mg/kg iv, Day 4
  deaths: one death
[4]; treated group compared with control (untreated) group
  Changes in Metastases (mean) (N): −32 N

## CCCc1c(OCCCOc2ccc(C(C)=O)c(OC)c2CCC)ccc2c1OC(C(=O)O)CC2 (racemic) [Biomed 101, (±)7-[3-(4-acetyl-3-methoxy-2-propylphenoxy)propoxy]-3,4-dihydro-8-propyl-2H-1-benzopyran-2-carboxylic acid]
[1]; LA 2×10 or 2×30 mg/kg i.p. with IL-2 12.5 MIU/kg i.v., p>0.5 vs control, p<0.001 vs IL-2 alone
  effect of LA on the reduction in oxygenation induced by IL-2: mitigated
[5]
  Inhibition of human neutrophil adhesion to LTB4-stimulated umbilical vein endothelial cells, range: 0.3 to 1.0 µM
[6]
  highest tolerated dose: 25 mg/kg bid
[7]
  Inhibition of calcium ionophore dermal inflammation in the guinea pig ear, ED50: 0.7 mg/ear
LTB4 synthesis
  IC50: 2100 nM
LTB4 chemotaxis [8]
  Inhibition of LTB4 chemotaxis, range: 0.3 to 3.0 µM
[9]
  Inhibition of LTB4-induced neutrophil granulation, range: 1 to 3 µM
LTB4 chemotaxis [10]
  ED50: 0.6 mg/kg
[11]
  ED50: 20 mg/kg
IL-2-induced toxicity [12]
  Median PaO2 versus IL-2 alone: significantly higher
  Median PaO2 versus control animals: not significantly different
[4]; Day 10, IL-2 1 mg/kg iv, Biomed 101 25 mg/kg ip with IL-2, q6hx2, qdx4, vehicle control 98
  Number of lung mets Mean (± SEM): 56
[4]; mice, Biomed 101 25 mg/kg ip with IL-2
  effect of coadministration on the anti-tumor activity of IL-2: fully preserves and may enhance
[13]; 20 mg/kg Biomed 101 i.p. (2×10 mg/kg)
  mean plasma level (± standard error of the mean) of Biomed 101: 2.0 (±0.26) μg/ml
[13]; 60 mg/kg Biomed 101 i.p. (2×30 mg/kg)
  mean plasma level (± standard error of the mean) of Biomed 101: 6.4 (±0.89) μg/ml
Renal cell carcinoma [14]
  number of doses of IL-2 withheld because of IL-2 toxicity as plasma level of LA increased: decreased
  total number of doses of IL-2 well tolerated as LA dose and plasma level rose: rose
Renal cell carcinoma [14]; 25 mg TID to 75 mg TID orally
  plasma level of LA with total daily dose: increased
12 (R)-HETE
  ED50: 20 mg/kg
[15]
  IC50: 20 µM

Reference: patent US6423744B1, “Method of diminishing the adverse effects of interleukin-2” (Biomedicines, Inc., priority 1998, dated 2002)
